Consider 26 compounds from BindingDB's records for doi:10.1007/s00044-008-9125-0 (n/a, 2009).

This assay is described as follows: Inhibition of Bos taurus (bovine) heart cAMP-dependent phosphodiesterase assessed as inhibition of cyclic AMP to 5' AMP after 20 min by spectrophotometry.
What is called IC50 is the point on the concentration scale where inhibition reaches its midpoint. For the compound `CCOc1ccc2sc(-n3c(-c4ccccc4)nc4ccccc4c3=O)nc2c1`, the IC50 stood at 2490 µM.
For `O=c1c2cc(Br)cc(Br)c2nc(-c2ccccc2)n1-c1nc2ccc([N+](=O)[O-])cc2s1`, the IC50 came to 1520 µM.
For `COc1cccc2sc(-n3c(-c4ccccc4)nc4c(Br)cc(Br)cc4c3=O)nc12`, the IC50 was 2070 µM.
Next, `O=c1c2ccccc2nc(-c2ccccc2)n1-c1nc2ccc([N+](=O)[O-])cc2s1`: 2640 µM; `O=c1c2cc(Br)cc(Br)c2nc(-c2ccccc2)n1-c1nc2ccccc2s1`: 1930 µM.
Next, `O=c1c2ccccc2nc(-c2ccccc2)n1-c1nc2cc(Cl)ccc2s1`: 2110 µM; `CCOc1cccc2sc(-n3c(-c4ccccc4)nc4c(Br)cc(Br)cc4c3=O)nc12`: 2160 µM; `Cc1ccc2sc(-n3c(-c4ccccc4)nc4ccccc4c3=O)nc2c1`: 2270 µM.
Take `Cc1ccc2sc(-n3c(-c4ccccc4)nc4c(Br)cc(Br)cc4c3=O)nc2c1`: the IC50 amounted to 2020 µM.
Consider `COc1ccc2nc(-n3c(-c4ccccc4)nc4ccccc4c3=O)sc2c1`, for which the IC50 was determined as 2420 µM.
Take `O=c1c2cc(Br)cc(Br)c2nc(-c2ccccc2)n1-c1nc2ccc(Br)cc2s1`: the IC50 worked out at 1640 µM.
`O=c1c2ccccc2nc(-c2ccccc2)n1-c1nc2ccc(Br)cc2s1`: the IC50 stood at 2130 µM.
Turning to `CCOc1ccc2sc(-n3c(-c4ccccc4)nc4c(Br)cc(Br)cc4c3=O)nc2c1`, the IC50 turned out to be 2150 µM.
Next, `Cc1cccc2sc(-n3c(-c4ccccc4)nc4ccccc4c3=O)nc12`: 2280 µM.
As for `CCOc1ccc2nc(-n3c(-c4ccccc4)nc4c(Br)cc(Br)cc4c3=O)sc2c1`, the IC50 was found to be 2120 µM.
As for `Cc1cc(C)c2nc(-n3c(-c4ccccc4)nc4c(Br)cc(Br)cc4c3=O)sc2c1`, the IC50 is 2070 µM.
In the case of `O=c1c2cc(Br)cc(Br)c2nc(-c2ccccc2)n1-c1nc2cc(Cl)ccc2s1`, the IC50 was found to be 1440 µM.
`COc1ccc2sc(-n3c(-c4ccccc4)nc4c(Br)cc(Br)cc4c3=O)nc2c1`: the IC50 stood at 2090 µM.
As for `Cc1cc(C)c2nc(-n3c(-c4ccccc4)nc4ccccc4c3=O)sc2c1`, the IC50 was found to be 2410 µM.
Next, `O=c1c2ccccc2nc(-c2ccccc2)n1-c1nc2ccccc2s1`: 2100 µM; `CCOc1ccc2nc(-n3c(-c4ccccc4)nc4ccccc4c3=O)sc2c1`: 2430 µM.
Consider `Cc1cccc2sc(-n3c(-c4ccccc4)nc4c(Br)cc(Br)cc4c3=O)nc12`, for which the IC50 was 2030 µM.
As for `COc1ccc2nc(-n3c(-c4ccccc4)nc4c(Br)cc(Br)cc4c3=O)sc2c1`, the IC50 amounted to 2120 µM.
Next, `CCOc1cccc2sc(-n3c(-c4ccccc4)nc4ccccc4c3=O)nc12`: 2420 µM; `COc1cccc2sc(-n3c(-c4ccccc4)nc4ccccc4c3=O)nc12`: 2320 µM.
Regarding `COc1ccc2sc(-n3c(-c4ccccc4)nc4ccccc4c3=O)nc2c1`, the IC50 worked out at 2330 µM.
